From US9776965B2, “Pyrrolidin-2-one and piperidin-2-one derivatives as 11-beta hydroxysteroid dehydrogenase inhibitors” (Janssen Pharmaceutica N.V., priority 2004, dated 2017)

Tests used:
11b-HSD1 [1] = target: 11b-HSD1 (Homo sapiens, UniProt P28845); assay: Enzymatic assay, 11b-HSD1 dependent conversion of cortisone into cortisol (reductase activity); type: biochemical; conditions: recombinant protein, 2 μM cortisone, 45 min at 37 C; read-out: [C1] HSD1-prot Reduct Score
In short: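 Recombinant human 11b-HSD1 (11 µg) with 2 µM cortisone and 180 µM NADPH in 30 mM Tris-HCl pH 7.2, 1 mM EDTA, incubated 45 min at 37 °C. Cortisol formation was measured by HPLC with a corticosterone internal standard. Compounds were tested from 10^−5 M to 3.10^−9 M, and pIC50 was scored as 1 (<5), 2 (5–6) or 3 (>6).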

11b-HSD2 [2] = target: T1, 11b-HSD2 (Homo sapiens, UniProt P80365); assay: Enzymatic assay, 11b-HSD2 dependent dehydrogenase activity; type: biochemical; conditions: recombinant protein, 100 nM cortisol, 45 min at 37 C; read-out: [C1] HSD2 prot Dehydro Score
T1 sequence (P80365 1-405): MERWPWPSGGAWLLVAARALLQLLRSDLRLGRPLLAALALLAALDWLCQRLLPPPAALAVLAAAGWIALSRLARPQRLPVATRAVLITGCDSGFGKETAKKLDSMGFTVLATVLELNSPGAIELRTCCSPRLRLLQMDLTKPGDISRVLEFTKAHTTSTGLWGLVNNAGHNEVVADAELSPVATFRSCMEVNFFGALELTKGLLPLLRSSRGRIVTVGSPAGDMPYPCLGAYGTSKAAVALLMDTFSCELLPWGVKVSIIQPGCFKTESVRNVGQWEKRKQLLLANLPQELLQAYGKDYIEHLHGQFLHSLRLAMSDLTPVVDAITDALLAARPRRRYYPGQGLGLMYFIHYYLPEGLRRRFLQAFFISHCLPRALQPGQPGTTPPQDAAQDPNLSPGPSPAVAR
Protocol: The effects on the 11b-HSD2 dependent dehydrogenase activity was studied in a reaction mixture containing 0.1M sodium phosphate buffer pH 7.5, 300 μM NAD, 100 nM cortisol (of which 2 nM is 3H-radio labelled), 1 μl drug and/or solvent and 2.5 μg recombinant protein in a final volume of 100 μl.
All incubations were performed for 45 min at 37 C in a water bath. The reaction was stopped by adding 100 μl acetonitrile containing 20 μg corticosterone as internal standard. After centrifugation, the product formation was analysed in the supernatant by HPLC on a Hypersyl BDS-C18 column using 0.05 mM ammonium acetate/methanol (50/50) as solvent. In all of the aforementioned assays, the drugs to be tested were taken from a stock solution and tested at a final concentration ranging from […] to 3.10^−9M. From the thus obtained dose response curves, the pIC50 value was calculated and scored as follows; Score 1=pIC50 value<5, Score 2=pIC50 value in the range of 5 to 6, Score 3=pIC50 value>6. (in this table NT stands for Not Tested).

11b-HSD1 [3] = target: T2, 11b-HSD1 (Mus musculus, UniProt P50172); assay: Cellular assay, 11b-HSD1 activity in differentiated 3T3-L1 cells; type: cell-based; conditions: 4 hour pre-incubation, read-out: [C2] HSD1 cellular 3T3-L1 Score
T2 construct: Fibroblasts were differentiated into adipocytes; endogenous in cells; host or cells: differentiated 3T3-L1 cells (ATCC-CL-173)
T2 sequence (P50172 whole entry): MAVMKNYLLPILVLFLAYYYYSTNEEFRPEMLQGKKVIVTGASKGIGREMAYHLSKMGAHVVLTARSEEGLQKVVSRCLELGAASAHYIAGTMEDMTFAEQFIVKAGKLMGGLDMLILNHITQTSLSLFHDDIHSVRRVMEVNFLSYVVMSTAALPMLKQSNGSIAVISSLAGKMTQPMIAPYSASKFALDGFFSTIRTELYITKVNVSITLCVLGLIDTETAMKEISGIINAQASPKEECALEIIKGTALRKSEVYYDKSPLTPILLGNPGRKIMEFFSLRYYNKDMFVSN
In short: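 Differentiated mouse 3T3-L1 adipocytes pre-incubated 4 hours with compound (final 3.10^−9 to 10^−5 M), then 0.5 μCi ³H-cortisone or dehydrocorticosterone added for one hour. Medium extracted with diethyl ether and steroids resolved by HPLC; pIC50 from dose-response curves, reported as scores.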

11b-HSD2 [4] = target: T1, 11b-HSD2; assay: Cellular assay, 11b-HSD2 activity in HepG2 cells; type: cell-based; set-up: endogenous in cells; host or cells: HepG2 (ATCC HB-8065); conditions: 4 hour pre-incubation, read-out: [C2] HSD2 cellular HepG2 Score
Protocol: The effects on 11b-HSD2 activity was studied in HepG2 and LCC-PK1-cells HepG2-cells (ATCC HB-8065) were seeded in 12 well plates at a density of 100,000 cells/ml and grown at 37 C in a humidified 5% CO2 atmosphere in MEM-Rega-3 medium supplemented with 10% heat inactivated foetal calf serum, 2 mM L-glutamine and sodium bicarbonate). Medium was refreshed twice a week.
Following a 4 hour pre-incubation with test compound, 0.5 μCi ^3H-cortisol or corticosterone, was added to the cultures. One hour later, the medium was extracted on Extrelut^3-columns with 15 ml diethyl ether and the extract was analysed by HPLC as described above.
As for the enzymatic assays, the compounds to be tested were taken from a stock solution and tested at a final concentration ranging from […] to 3.10^−9M. From the thus obtained dose response curves, the pIC50 value was calculated and scored as follows; Score 1=pIC50 value<5, Score 2=pIC50 value in the range of 5 to 6, Score 3=pIC50 value>6. Some of the thus obtained results are summarized in the table below (in this table NT stands for Not Tested).

Chain of 11b-HSD1 (Homo sapiens, UniProt P28845) (P28845 whole entry): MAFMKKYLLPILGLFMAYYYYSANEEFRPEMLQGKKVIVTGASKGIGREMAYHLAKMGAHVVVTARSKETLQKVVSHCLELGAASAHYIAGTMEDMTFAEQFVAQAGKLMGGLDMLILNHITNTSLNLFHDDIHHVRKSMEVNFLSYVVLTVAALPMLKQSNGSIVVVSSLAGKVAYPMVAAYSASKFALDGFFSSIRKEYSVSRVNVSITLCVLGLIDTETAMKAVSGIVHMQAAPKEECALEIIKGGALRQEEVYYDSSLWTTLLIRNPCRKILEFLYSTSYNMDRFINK

SMILES	IC50 (11b-HSD1 [1])	IC50 (11b-HSD2 [2])	IC50 (11b-HSD1 [3])	melting point	IC50 (11b-HSD2 [4])
C[C@@H](c1ccccc1)N1CC[C@@H](Cc2c(Cl)cccc2Cl)C1=O [Compound 14]	< 1 µM	> 10 µM	< 1 µM	75 to 76 °C	> 10 µM
COc1ccc(C[C@H]2CCN([C@H](C)c3ccccc3)C2=O)cc1 [Compound 65]	> 10 µM	> 10 µM	< 1 µM		> 10 µM
CC[C@H](c1ccccc1)N1CC[C@@H](Cc2c(Cl)cccc2Cl)C1=O [Compound 97]	< 1 µM	1 to 10 µM	> 10 µM		> 10 µM
COc1ccc(C[C@@H]2CCN([C@@H](C)c3ccccc3)C2=O)c(Cl)c1OC [Compound 119]	< 1 µM	1 to 10 µM	< 1 µM		> 10 µM
Cc1ccccc1C(C)[C@@H]1CCN([C@@H](C)c2ccccc2)C1=O (stereo partly shown) [Compound 162]	< 1 µM	1 to 10 µM	< 1 µM		> 10 µM
Cc1ccccc1C(C)[C@H]1CCN([C@@H](C)c2ccccc2)C1=O (stereo partly shown) [Compound 163]	< 1 µM	1 to 10 µM	< 1 µM		> 10 µM
